The record followed here is US20240099989A1, “AGENT FOR PREVENTING OR IMPROVING PERIPHERAL NEUROPATHY” (KINKI UNIVERSITY, priority 2021, published 2024).

For this test, the system named is Peripheral Neuropathy in a Mouse Caused by Oxaliplatin. Description: Von Frey test (0.16 g filament), peripheral neuropathy caused by oxaliplatin. In kind it is in vivo, Balb/c mice. Conditions: 6 mg/kg oxaliplatin + 100 mg/kg orally daily from Day 6 (therapy). An excerpt: Six to seven-week-old female Balb/c mice were used for the tests as with Example 1. All the mice were acclimated for seven days after arrival. Then, the mice were grouped into the following four groups: a control group, a group receiving oxaliplatin, a group receiving D-threitol, and a group receiving oxaliplatin and D-threitol (a group receiving oxaliplatin+D-threitol). Each group consisted of five mice.
On Day 8 of acclimation, the mice in the group receiving oxaliplatin and the group receiving oxaliplatin+D-threitol were intraperitoneally administered with oxaliplatin at a dose of 6 mg/kg. This day was designated as the first day of the administration (Day 0). Thereafter, these mice were intraperitoneally administered with oxaliplatin at a daily dose of 6 mg/kg on Day 7 and Day 14.
The mice in the group receiving D-threitol and the group receiving oxaliplatin+D-threitol were orally administered with D-threitol at a dose of 5 mg/kg daily from Day 0.
The mice in the four groups described in (1) of the present example (Example 3) were placed in a cage, and the avoidance response frequency (score) was measured by pressing a filament with a bending force of 0.16 g against the back of the hind paw.
On Day 8 of acclimation, the mice in the group receiving oxaliplatin and the group receiving oxaliplatin+D-threitol were intraperitoneally administered with oxaliplatin at a dose of 6 mg/kg. This day was designated as the first day of the administration (Day 0). Thereafter, these mice were intraperitoneally administered with oxaliplatin at the same dose on Day 7 and Day 14 for a total of 3 doses.
The mice in the group receiving 100 mg/kg D-threitol were orally administered with D-threitol at a dose of 100 mg/kg daily from Day 0. The mice in the group receiving oxaliplatin+100 mg/kg D-threitol were orally administered with D-threitol at a dose of 100 mg/kg daily from Day 6 of administration.
For the mice in the four groups described in (1) of the present example (Example 4), the avoidance response frequency (score) was measured by pressing a filament with a bending force of 0.16 g against the back of the hind paw.
Six to seven-week-old female Balb/c mice were used for the tests as with Example 1. All the mice were acclimated for seven days after arrival. Then, the mice were grouped into the following four groups: a control group, a group receiving oxaliplatin, a group receiving L-talitol, and a group receiving oxaliplatin and L-talitol (a group receiving oxaliplatin+L-talitol). Each group consisted of five mice. […]
The mice in the four groups described in (1) of the present example (Example 5) were placed in a cage, and the avoidance response frequency (score) was measured by pressing a filament with a bending force of 0.16 g against the back of the hind paw. […]

Each structure is given as a SMILES string.

Consider `OC[C@@H](O)[C@H](O)CO` [D-threitol], for which, under “from Day 15 onwards”, the avoidance response score result is reported as “maintained a score clearly lower than that of the group receiving oxaliplatin”.

Take `OC[C@@H](O)[C@H](O)[C@@H](O)CO` [xylitol]: the avoidance response score entry (from Day 12 onwards) is “maintained a score clearly lower than that of the group receiving oxaliplatin”.

For `OC[C@H](O)[C@H](O)[C@H](O)[C@@H](O)CO` [L-talitol], the avoidance response score entry (from Day 12 onwards) was “maintained a score clearly lower than that of the group receiving oxaliplatin”.
